Literature values, collected in patent US11766428B2 (TAVANTA THERAPEUTICS HUNGARY INCORPORATED, priority 2018, dated 2023).

Tests used:
[1] = not given; remark: listed apart in the source

circulating drug bound to plasma proteins (ex vivo, hypertensive patients) | influence of renal impairment on pharmacokinetics (human, in vivo) | parent compound excreted in the urine (human, in vivo) | therapeutic plasma level (human, in vivo) | effect of food on bioavailability (oral) | solubility in ethanol [1] | solubility in water [1] | Compound
approximately 93% | not significantly influenced | 10% | 3 to 10 ng/mL | not altered by the presence of food | – | – | CCOC(=O)C1=C(COCCN)NC(C)=C(C(=O)OC)C1c1ccccc1Cl (stereo not shown) [amlodipine]
– | – | – | – | – | sparingly soluble | slightly soluble | CCOC(=O)C1=C(COCCN)NC(C)=C(C(=O)OC)C1c1ccccc1Cl (racemic) [Amlodipine besylate, 3-ethyl-5-methyl (±)-2-[(2-aminoethoxy)methyl]-4-(2-chlorophenyl)-1,4-dihydro-6-methyl-3,5-pyridinedicarboxylate, monobenzenesulphonate]
